Test results taken from US20090192164A1, “Treating agent of inflammatory bowel disease” (ASKA Pharmaceutical Co., Ltd., priority 2006, published 2009).

What was measured:
[1] = system: TNF-α production in THP-1 cells; experiment: TNF-α production-inhibiting activity in LPS-stimulated THP-1 cells; format: cell-based; conditions: Homo sapiens, 2 hours, ELISA
Procedure: (2) Measurement of TNF-α Production-Inhibiting Activity:
THP-1 (purchased from Dainippon Pharmaceuticals Co.) which are human-derived cultured cells, were suspended in RPMI1640 culture medium (10% fetal bovine serum, containing 100 units/mL penicillin) (1×10^5 cells/mL). Onto a 24-well culture plate, 1.6 mL of the THP-1 cell suspension was inoculated, and further 0.2 mL of the test substance as dissolved in RPM11640 culture medium and 0.2 mL of LPS (E. Coli 055: B5-derived, dissolved in RPM11640 culture medium, Difco) at a concentration of 10 μg/mL were added, followed by 2 hours' cultivation under the conditions of 37° C. and 5% CO2. The supernatant obtained upon centrifugation (500×g, 5 min.) was assayed with ELISA (Amersham Bioscience, TNF-α: Human, ELISA Biotrak System) to quantify TNF-α. The concentration of each test substance required to inhibit TNF-α production by 50% (IC50) was determined as follows. First, TNF-α production inhibition (%) values at various concentrations were determined by the following formula: […]
The TNF-α production inhibition (%) obtained by the above formula and the concentration of the test substance in that occasion were computed on Prism 4 for Windows Ver 4.02 (Graph Pad Software, Inc.) to calculate IC50 value.

[2] = Compounds' extinction rates in human liver S9; format: in vitro ADME; conditions: human liver S9 0.5 mg protein/mL, compound 1 μmol/L, 37° C.
Procedure: (3) Measurement of the Compounds' Extinction Rates:
To a potassium phosphate buffer solution (50 mmol/L, pH […]) containing NADPH production system (formed of 3.3 mmol/L MgCl2, 3.3 mmol/L glucose-6-phosphate, 1.3 mmol/L β-NAPD^+ and 0.4 unit/mL glucose-6-phosphate dehydrogenase), each test compound was added (in which occasion the final concentration was made 1 μmol/L) and incubated at 37° C. for 2 minutes. After the incubation, a suspension of human liver S9 (supernatant fraction obtained by centrifugation of crushed human liver cells at 9000×g) in potassium phosphate buffer solution was added to a final concentration of 0.5 mg protein/mL. This liquid reaction mixture was incubated at 37° C. for 5 minutes, to which 4 volume times thereof of acetonitrile was added, mixed, and cooled with ice. After the cooling with ice, the mixture was centrifuged (2000×g, 10 min.) and a part of the supernatant was recovered and analyzed with LSIMS/MS to calculate the residual ratio of unchanged substance in the reaction solution. The results are shown in the following Table B concurrently with the results of above (2) measurement of TNF-α production-inhibiting activity.

Row | SMILES | IC50 [1] | Parent compound remaining after 5 min in human liver S9 (%) [2]
1 | Cc1cc(-c2noc(NC(=O)Cc3ccccc3C)c2-c2ccncn2)ccc1F [Compound B-13, 3-(3-Methyl-4-fluorophenyl)-5-[(2-methylphenyl)acetylamino]-4-(4-pyrimidinyl)isoxazole] | 13.7 nM | 52.6%
2 | O=C(Cc1c(F)cccc1Cl)Nc1onc(-c2ccc(F)cc2)c1-c1ccncn1 [Compound B-2, 5-[(2-Chloro-6-fluorophenyl)acetylamino]-3-(4-fluorophenyl)-4-(4-pyrimidinyl)isoxazole] | 67.9 nM | 16.1%
3 | CCCn1nc(-c2ccc(F)cc2)c(-c2ccncc2)c1C(=O)OCc1ccccc1Cl [Compound B-20] | 83.3 nM | 77.0%
4 | Cc1cccc(CC(=O)Nc2onc(-c3ccc(F)cc3F)c2-c2ccncn2)c1 [Compound B-5, 3-(2,4-Difluorophenyl)-5-[(3-methylphenyl)acetylamino]-4-(4-pyrimidinyl)isoxazole] | 139 nM | 46.6%
5 | Cc1ccc(F)c(-c2noc(NC(=O)Cc3ccccc3)c2-c2ccncn2)c1 [Compound B-11, 3-(2-Fluoro-5-methylphenyl)-5-(phenylacetylamino)-4-(4-pyrimidinyl)isoxazole] | 90.5 nM | 39.8%
6 | COc1cccc(CC(=O)Nc2onc(-c3ccc(F)c(C)c3)c2-c2ccncn2)c1 [Compound B-12, 5-[(3-Methoxyphenyl)acetylamino]-3-(3-methyl-4-fluorophenyl)-4-(4-pyrimidinyl)isoxazole] | 52.6 nM | 33.1%
7 | Cc1cc(-c2noc(NC(=O)Cc3ccccc3Cl)c2-c2ccncc2)ccc1F [Compound B-18, 5-[(2-Chlorophenyl)acetylamino]-3-(4-fluoro-3-methylphenyl)-4-(4-pyridyl)isoxazole] | 85.2 nM | 59.7%
8 | CCn1nc(-c2ccc(F)cc2)c(-c2ccncn2)c1C(=O)OCc1ccc(Cl)cc1Cl [Compound B-21] | 61.5 nM | 56.4%
9 | COc1ccc(-c2noc(NC(=O)Cc3ccccc3Cl)c2-c2ccncn2)c(F)c1 [Compound B-6, 5-[(2-Chlorophenyl)acetylamino]-3-(2-fluoro-4-methoxyphenyl)-4-(4-pyrimidinyl)isoxazole] | 28.5 nM | 24.1%
10 | O=C(Cc1ccccc1Cl)Nc1onc(-c2ccc(F)cc2F)c1-c1ccncn1 [Compound B-4, 5-[(2-Chlorophenyl)acetylamino]-3-(2,4-difluorophenyl)-4-(4-pyrimidinyl)isoxazole] | 32.1 nM | 20.4%
11 | Cc1cccc(-c2noc(NC(=O)CCc3ccccc3C)c2-c2ccncc2)c1 [Compound B-15, 3-(3-Methylphenyl)-5-[(2-methylphenyl)propionylamino]-4-(4-pyridyl)isoxazole] | 52.9 nM | 23.3%
12 | Cc1cc(-c2noc(NC(=O)CCc3ccccc3)c2-c2ccncc2)ccc1F [Compound B-19, 3-(4-Fluoro-3-methylphenyl)-5-(3-phenylpropionylamino)-4-(4-pyridyl)isoxazole] | 66 nM | 20.1%
13 | Cc1cccc(CC(=O)Nc2onc(-c3cccc(C)c3)c2-c2ccncn2)c1 [Compound B-10, 3-(3-Methylphenyl)-5-[(3-methylphenyl)acetylamino]-4-(4-pyrimidinyl)isoxazole] | 152 nM | 38.5%
14 | O=C(Cc1ccccc1Cl)Nc1onc(-c2ccc(Cl)cc2)c1-c1ccncn1 [Compound B-3, 3-(4-Chlorophenyl)-5-[(2-chlorophenyl)acetylamino]-4-(4-pyrimidinyl)isoxazole] | 48.7 nM | 53.1%
15 | CCn1nc(-c2cccc(C)c2)c(-c2ccncc2)c1COC(=O)c1ccccc1 [Compound B-23] | 26.5 nM | 28.3%
16 | Cc1ccc(F)c(-c2noc(NC(=O)CCc3cccc(Cl)c3)c2-c2ccncc2)c1 [Compound B-16, 5-[(3-Chlorophenyl)propionylamino]-3-(2-fluoro-5-methyl-phenyl)-4-(4-pyridyl)isoxazole] | 58.1 nM | 50.5%
17 | Cc1cc(-c2noc(NC(=O)Cc3ccccc3)c2-c2ccncc2)ccc1F [Compound B-17, 3-(4-Fluoro-3-methylphenyl)-5-(phenylacetylamino)-4-(4-pyridyl)isoxazole] | 78.1 nM | 58.0%
18 | Cc1cccc(-c2noc(NC(=O)CCc3ccccc3)c2-c2ccncc2)c1 [Compound B-14, 3-(3-Methylphenyl)-5-(3-phenylpropionylamino)-4-(4-pyridyl)isoxazole] | 65.5 nM | 17.6%
19 | Cc1cccc(-c2noc(NC(=O)Cc3ccccc3C)c2-c2ccncn2)c1 [Compound B-9, 3-(3-Methylphenyl)-5-[(2-methylphenyl)acetylamino]-4-(4-pyrimidinyl)isoxazole] | 13.4 nM | 59.9%
20 | Cc1cccc(-c2noc(NC(=O)Cc3ccccc3Cl)c2-c2ccncn2)c1 [Compound B-7, 5-[(2-Chlorophenyl)acetylamino]-3-(3-methylphenyl)-4-(4-pyrimidinyl)isoxazole] | 36.7 nM | 21.2%
21 | Cc1cccc(-c2noc(NC(=O)Cc3ccccc3Br)c2-c2ccncn2)c1 [Compound B-8, 5-[(2-Bromophenyl)acetylamino]-3-(3-methylphenyl)-4-(4-pyrimidinyl)isoxazole] | 49.2 nM | 43.6%
22 | Cc1cccc(-c2nn(C)c(COC(=O)c3ccccc3)c2-c2ccncc2)c1 [Compound B-22] | 45.5 nM | 25.5%
23 | O=C(Cc1ccccc1Cl)Nc1onc(-c2ccc(F)cc2)c1-c1ccncn1 [Compound B-1, 5-[(2-Chlorophenyl)acetylamino]-3-(4-fluorophenyl)-4-(4-pyrimidinyl)isoxazole] | 36.1 nM | 5.8%
